Reference: patent publication US9499550B2 (BRISTOL-MYERS SQUIBB COMPANY, priority 2012, dated 2016)

Experiments:
[1] = tested on: HCV genotype 1a (H77 strain) replicon in HUH-7 cells; experiment: HCV replicon luciferase reporter assay, genotype 1a; format: cell-based; details: Hepatitis C virus, Huh-7, 72 h, HCV genotype 1a replicon luciferase assay, 3 days incubation, range class, read-out: LE_1a (EC50, range)
Procedure, shortened: (§1)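 Replicon inhibition for both genotypes was measured as Renilla luciferase signal (EnduRen, 7.5 μM final, 2 h) after 3-day, 37° C exposure of replicon-bearing HUH-7 cells in 4% FCS DMEM, 0.5% DMSO. The 1b construct carries S1179I; the 1a H77 construct carries P1496L and S2204I. Twenty-point, 3-fold dilutions were fitted four-parametrically for EC50, and CC50 was taken from multiplexed Cell Titer-Blue.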

[2] = tested on: HCV genotype 1b (Con1) replicon in HUH-7 cells; experiment: HCV replicon luciferase reporter assay, genotype 1b; format: cell-based; details: Hepatitis C virus, Huh-7, 72 h, HCV genotype 1b replicon luciferase assay, 3 days incubation, range class, read-out: LE_1b (EC50, range)
Procedure, shortened: as §1

Structure (SMILES) | EC50 [1] [nM] | EC50 [2] [nM]
COc1ccc2c(O[C@@H]3C[C@H]4C(=O)N[C@]5(C(=O)NS(=O)(=O)C6(CF)CC6)C[C@H]5/C=C\CC[C@H](C)C[C@@H](C)[C@H](NC(=O)OC(C)(C)C(C)(F)F)C(=O)N4C3)nc(N(C)C)cc2c1 [Compound 3124, 3,3-difluoro-2-methylbutan-2-yl((2R,6S,7R,9S,13aS,14aR,16aS,Z)-2-((3-(dimethylamino)-6-methoxyisoquinolin-1-yl)oxy)-14a-(((1-(fluoromethyl)cyclopropyl)sulfonyl)carbamoyl)-7,9-dimethyl-5,16-dioxo-1,2,3,5,6,7,8,9,10,11,13a,14,14a,15,16,16a-hexadecahydrocyclopropa[e]pyrrolo[1,2-a][1,4]diazacyclopentadecin-6-yl)carbamate] | 4.82 to 103 | 4.82 to 103
COc1ccc2c(O[C@@H]3C[C@H]4C(=O)N[C@]5(C(=O)NS(=O)(=O)C6(CF)CC6)C[C@H]5/C=C\CC[C@@H](C)C[C@@H](C)[C@H](NC(=O)OC(C)(C)C(F)(F)F)C(=O)N4C3)nc(N(C)C)cc2c1 [Compound 3127, 1,1,1-trifluoro-2-methylpropan-2-yl((2R,6S,7R,9R,13aS,14aR,16aS,Z)-2-((3-(dimethylamino)-6-methoxyisoquinolin-1-yl)oxy)-14a-(((1-(fluoromethyl)cyclopropyl)sulfonyl)carbamoyl)-7,9-dimethyl-5,16-dioxo-1,2,3,5,6,7,8,9,10,11,13a,14,14a,15,16,16a-hexadecahydrocyclopropa[e]pyrrolo[1,2-a][1,4]diazacyclopentadecin-6-yl)carbamate] | 4.82 to 103 | < 5.46
COc1ccc2c(O[C@@H]3C[C@H]4C(=O)N[C@]5(C(=O)NS(=O)(=O)C6(CF)CC6)C[C@H]5/C=C\CC[C@@H](C)C[C@@H](C)[C@H](NC(=O)O[C@H](C)C(F)(F)F)C(=O)N4C3)nc(N(C)C)cc2c1 [Compound 3128, (R)-1,1,1-trifluoropropan-2-yl((2R,6S,7R,9R,13aS,14aR,16aS,Z)-2-((3-(dimethylamino)-6-methoxyisoquinolin-1-yl)oxy)-14a-(((1-(fluoromethyl)cyclopropyl)sulfonyl)carbamoyl)-7,9-dimethyl-5,16-dioxo-1,2,3,5,6,7,8,9,10,11,13a,14,14a,15,16,16a-hexadecahydrocyclopropa[e]pyrrolo[1,2-a][1,4]diazacyclopentadecin-6-yl)carbamate] | 4.82 to 103 | < 5.46
COc1ccc2c(O[C@@H]3C[C@H]4C(=O)N[C@]5(C(=O)NS(=O)(=O)C6CC6)C[C@H]5/C=C\CC[C@@H](C)C[C@@H](C)[C@H](NC(=O)OC(C)(C)C(F)(F)F)C(=O)N4C3)nc(N(C)C)cc2c1 [Compound 3130, 1,1,1-trifluoro-2-methylpropan-2-yl((2R,6S,7R,9R,13aS,14aR,16aS,Z)-14a-((cyclopropylsulfonyl)carbamoyl)-2-((3-(dimethylamino)-6-methoxyisoquinolin-1-yl)oxy)-7,9-dimethyl-5,16-dioxo-1,2,3,5,6,7,8,9,10,11,13a,14,14a,15,16,16a-hexadecahydrocyclopropa[e]pyrrolo[1,2-a][1,4]diazacyclopentadecin-6-yl)carbamate] | < 5.46 | < 5.46
COc1ccc2c(O[C@@H]3C[C@H]4C(=O)N[C@]5(C(=O)NS(=O)(=O)C6CC6)C[C@H]5/C=C\CC[C@@H](C)C[C@@H](C)[C@H](NC(=O)OC(C)(C)C(C)(F)F)C(=O)N4C3)nc(N(C)C)cc2c1 [Compound 3132, 3,3-difluoro-2-methylbutan-2-yl((2R,6S,7R,9R,13aS,14aR,16aS,Z)-14a-((cyclopropylsulfonyl)carbamoyl)-2-((3-(dimethylamino)-6-methoxyisoquinolin-1-yl)oxy)-7,9-dimethyl-5,16-dioxo-1,2,3,5,6,7,8,9,10,11,13a,14,14a,15,16,16a-hexadecahydrocyclopropa[e]pyrrolo[1,2-a][1,4]diazacyclopentadecin-6-yl)carbamate] | < 5.46 | < 5.46
COc1ccc2c(O[C@@H]3C[C@H]4C(=O)N[C@]5(C(=O)NS(=O)(=O)C6CC6)C[C@H]5/C=C\CC[C@@H](C)C[C@@H](C)[C@H](NC(=O)O[C@H](C)C(F)(F)F)C(=O)N4C3)nc(N(C)C)cc2c1 [Compound 3134, (R)-1,1,1-trifluoropropan-2-yl ((2R,6S,7R,9R,13aS,14aR,16aS,Z)-14a-((cyclopropylsulfonyl)carbamoyl)-2-((3-(dimethylamino)-6-methoxyisoquinolin-1-yl)oxy)-7,9-dimethyl-5,16-dioxo-1,2,3,5,6,7,8,9,10,11,13a,14,14a,15,16,16a-hexadecahydrocyclopropa[e]pyrrolo[1,2-a][1,4]diazacyclopentadecin-6-yl)carbamate] | < 5.46 | < 5.46
COc1cnc(O[C@@H]2C[C@H]3C(=O)N[C@]4(C(=O)NS(=O)(=O)C5(C)CC5)C[C@H]4/C=C\CC[C@H](C)C[C@@H](C)[C@H](NC(=O)OC(C)(C)C)C(=O)N3C2)c2ccc(N(C)C)cc12 [Compound 3135, tert-butyl ((2R,6S,7R,9S,13aS,14aR,16aS,Z)-2-((6-(dimethylamino)-4-methoxyisoquinolin-1-yl)oxy)-7,9-dimethyl-14a-(((1-methylcyclopropyl)sulfonyl)carbamoyl)-5,16-dioxo-1,2,3,5,6,7,8,9,10,11,13a,14,14a,15,16,16a-hexadecahydrocyclopropa[e]pyrrolo[1,2-a][1,4]diazacyclopentadecin-6-yl)carbamate] | < 5.46 | < 5.46
COc1cnc(O[C@@H]2C[C@H]3C(=O)N[C@]4(C(=O)NS(=O)(=O)C5(C)CC5)C[C@H]4/C=C\CC[C@@H](C)C[C@@H](C)[C@H](NC(=O)OC(C)(C)C)C(=O)N3C2)c2ccc(N(C)C)cc12 [Compound 3136, tert-butyl ((2R,6S,7R,9R,13aS,14aR,16aS,Z)-2-((6-(dimethylamino)-4-methoxyisoquinolin-1-yl)oxy)-7,9-dimethyl-14a-(((1-methylcyclopropyl)sulfonyl)carbamoyl)-5,16-dioxo-1,2,3,5,6,7,8,9,10,11,13a,14,14a,15,16,16a-hexadecahydrocyclopropa[e]pyrrolo[1,2-a][1,4]diazacyclopentadecin-6-yl)carbamate] | < 5.46 | < 5.46
COc1cnc(O[C@@H]2C[C@H]3C(=O)N[C@]4(C(=O)NS(=O)(=O)C5(C)CC5)C[C@H]4/C=C\CC[C@H](C)C[C@@H](C)[C@H](NC(=O)OC(C)(C)C(F)(F)F)C(=O)N3C2)c2ccc(N(C)C)cc12 [Compound 3137, 1,1,1-trifluoro-2-methylpropan-2-yl((2R,6S,7R,9S,13aS,14aR,16aS,Z)-2-((6-(dimethylamino)-4-methoxyisoquinolin-1-yl)oxy)-7,9-dimethyl-14a-(((1-methylcyclopropyl)sulfonyl)carbamoyl)-5,16-dioxo-1,2,3,5,6,7,8,9,10,11,13a,14,14a,15,16,16a-hexadecahydrocyclopropa[e]pyrrolo[1,2-a][1,4]diazacyclopentadecin-6-yl)carbamate] | < 5.46 | < 5.46
COc1cnc(O[C@@H]2C[C@H]3C(=O)N[C@]4(C(=O)NS(=O)(=O)C5(C)CC5)C[C@H]4/C=C\CC[C@@H](C)C[C@@H](C)[C@H](NC(=O)OC(C)(C)C(F)(F)F)C(=O)N3C2)c2ccc(N(C)C)cc12 [Compound 3138, 1,1,1-trifluoro-2-methylpropan-2-yl((2R,6S,7R,9R,13aS,14aR,16aS,Z)-2-((6-(dimethylamino)-4-methoxyisoquinolin-1-yl)oxy)-7,9-dimethyl-14a-(((1-methylcyclopropyl)sulfonyl)carbamoyl)-5,16-dioxo-1,2,3,5,6,7,8,9,10,11,13a,14,14a,15,16,16a-hexadecahydrocyclopropa[e]pyrrolo[1,2-a][1,4]diazacyclopentadecin-6-yl)carbamate] | < 5.46 | < 5.46
CCOc1ccc2c(O[C@@H]3C[C@H]4C(=O)N[C@]5(C(=O)NS(=O)(=O)C6(C)CC6)C[C@H]5/C=C\CC[C@H](C)C[C@@H](C)[C@H](NC(=O)OC(C)(C)C(F)(F)F)C(=O)N4C3)ncc(OC)c2c1 [Compound 3139, 1,1,1-trifluoro-2-methylpropan-2-yl((2R,6S,7R,9S,13aS,14aR,16aS,Z)-2-((6-ethoxy-4-methoxyisoquinolin-1-yl)oxy)-7,9-dimethyl-14a-(((1-methylcyclopropyl)sulfonyl)carbamoyl)-5,16-dioxo-1,2,3,5,6,7,8,9,10,11,13a,14,14a,15,16,16a-hexadecahydrocyclopropa[e]pyrrolo[1,2-a][1,4]diazacyclopentadecin-6-yl)carbamate] | < 5.46 | < 5.46
CCOc1ccc2c(O[C@@H]3C[C@H]4C(=O)N[C@]5(C(=O)NS(=O)(=O)C6(C)CC6)C[C@H]5/C=C\CC[C@@H](C)C[C@@H](C)[C@H](NC(=O)OC(C)(C)C(F)(F)F)C(=O)N4C3)ncc(OC)c2c1 [Compound 3140, 1,1,1-trifluoro-2-methylpropan-2-yl((2R,6S,7R,9R,13aS,14aR,16aS,Z)-2-((6-ethoxy-4-methoxyisoquinolin-1-yl)oxy)-7,9-dimethyl-14a-(((1-methylcyclopropyl)sulfonyl)carbamoyl)-5,16-dioxo-1,2,3,5,6,7,8,9,10,11,13a,14,14a,15,16,16a-hexadecahydrocyclopropa[e]pyrrolo[1,2-a][1,4]diazacyclopentadecin-6-yl)carbamate] | < 5.46 | < 5.46
